Test results taken from US20250108036A1, “COMPOSITIONS FOR REMOVING SENESCENT CELLS AND USES THEREOF” (LIFECEUTIX CO., LTD., priority 2021, published 2025).
Read-outs that look alike come from different tables or passages of the source.

Columns and labels:
Type in all cases: cell-based, human
[1] = test system: foreskin cells in which senescence was induced by doxorubicin; experiment: CellTiter-Glo cell viability of doxorubicin-induced senescent foreskin cells (Examples 1-2, 10, 11, 13; Tables 4, 63, 65); settings: for removal of senescent cells: excessive concentrations (1 or 20 mM)
Protocol: After 3 days, cell viability was measured using CellTiter-Glo Luminescent Cell Viability Assay (Promega) or light microscopy.

HMGN1 [2] = experiment: HMGN1 ELISA in culture medium of A549 cancer cells (Example 12, Table 66); settings: Homo sapiens
HMGN1 [3] = experiment: HMGN1 ELISA in culture medium of foreskin cells (Examples 10, 11; Tables 62, 63, 64); settings: Homo sapiens; for activity at 30 µM: read-out: HMGN1
A549 = experiment: CellTiter-Glo cell viability of senescent A549 cancer cells (Example 12, Table 67); settings: for Survival (%): doxorubicin-induced senescent A549 cancer cells
[4] = Homo sapiens, 72 h, 1.1 μM test compound, doxorubicin-induced senescent foreskin cells, CellTiter-Glo, 0 μM = 100, read-out: Survival (%)
[5] = Homo sapiens, 72 h, 10 μM test compound, doxorubicin-induced senescent foreskin cells, CellTiter-Glo, 0 μM = 100, read-out: Survival (%)
[6] = Homo sapiens, 72 h, 30 μM test compound, doxorubicin-induced senescent foreskin cells, CellTiter-Glo, 0 μM = 100, read-out: Survival (%)
[7] = Homo sapiens, 72 h, […] test compound, doxorubicin-induced senescent foreskin cells, CellTiter-Glo, 0 μM = 100, read-out: Survival (%)
[8] = Homo sapiens, A549, doxorubicin-induced senescent A549 cancer cells, 1.1 μM test compound, CellTiter-Glo, read-out: Survival (%)
[9] = Homo sapiens, A549, doxorubicin-induced senescent A549 cancer cells, 10 μM test compound, CellTiter-Glo, read-out: Survival (%)
[10] = Homo sapiens, A549, doxorubicin-induced senescent A549 cancer cells, 30 μM test compound, CellTiter-Glo, read-out: Survival (%)
[11] = A549, doxorubicin-induced senescent A549 cells, test compound 30 μM, ELISA, DMSO = 100, read-out: HMGN1 (amount of HMGN1 secreted in the cell culture)
[12] = 30 μM test compound, doxorubicin-treated foreskin cells, DMSO = 100
[13] = Homo sapiens, 72 h, read-out: Survival (%)
[14] = A549, read-out: HMGN1 (amount of HMGN1 secreted in the cell culture)
[15] = Homo sapiens, A549, read-out: Survival (%)
[16] = […] test compound, doxorubicin-induced senescent foreskin cells, CellTiter-Glo, 0 μM = 100

Structure (SMILES)	viability at 1.1 µM [1, 4]	viability at […] [1, 7]	viability at 1.1 µM (A549; [8])	activity at 30 µM (HMGN1 [2]; [11])	activity at 30 µM (HMGN1 [3]; [12])	further results
OO [H2O2, reference compound]	–	–	–	–	–	removal of senescent cells [1]: hardly removed
CC1=CCC(c2cc(C(=O)C3CCC(c4ccc(C#N)cc4)CC3)c(C)cc2C2CCC2)=C1 (stereo not drawn) [LX-305]	101%	97.2%	99.2%	–	–	viability at 10 µM [1, 5]: 91%; viability at 30 µM [1, 6]: 78%; viability at 90 µM ([1]; Homo sapiens, 72 h, 90 μM test compound, doxorubicin-induced senescent foreskin cells, CellTiter-Glo, 0 μM = 100, read-out: Survival (%)): 23.2%; activity at 90 µM (HMGN1 [2]; A549, doxorubicin-induced senescent A549 cells, test compound 90 μM, ELISA, DMSO = 100, read-out: HMGN1 (amount of HMGN1 secreted in the cell culture)): 227%; activity at 90 µM (HMGN1 [3]; 90 μM test compound, doxorubicin-treated foreskin cells, DMSO = 100): 199%; viability at 10 µM (A549; [9]): 63.1%; viability at 30 µM (A549; [10]): 41%; viability at 90 µM (A549; Homo sapiens, A549, doxorubicin-induced senescent A549 cancer cells, 90 μM test compound, CellTiter-Glo, read-out: Survival (%)): 13.3%
O=C(O)Cn1nnc(-c2cc(N3CCC(Oc4cc(F)ccc4Br)CC3)no2)n1 [LX-309]	52.3%	12.5%	100%	254%	283%	viability at 10 µM [1, 5]: 4.3%; viability at 10 µM (A549; [9]): 92.3%; viability at 30 µM (A549; [10]): 28.1%
O=C(C(C[N+](=O)[O-])=NO)N1CCN(C(c2ccc(Cl)cc2)c2ccc(Cl)cc2)CC1 [LX-403]	36.9%	15.5%	40.2%	320%	275%	viability at 10 µM [1, 5]: 6.5%; viability at 10 µM (A549; [9]): 3.5%
C[C@H]1Cc2c([nH]c3ccccc23)[C@H](c2ccc([Si](C)(C)C)cc2)N1C(=O)CCl [LX-412]	0.3%	–	4.8%	327%	293%	–
COCC1Cc2c([nH]c3ccccc23)[C@H](c2ccc(C(=O)NC3CC3)cc2F)N1C(=O)CCl (stereo partly drawn) [LX-413]	0.5%	–	10.1%	322%	287%	–
C#CCOc1ccc2[nH]c3c(c2c1)C[C@H](C(=O)OC)N(C(=O)CCl)[C@H]3c1ccc(C(=O)NC23CC4CC(CC(C4)C2)C3)cc1 [LX-415]	0.4%	–	15.6%	297%	295%	–
COC(=O)c1ccc([C@H]2c3ccc(OC)cc3C[C@H](C(=O)OC)N2C(=O)CCl)cc1 [LX-416]	70.3%	29.1%	91.4%	315%	293%	–
COC(=O)c1ccc([C@@H]2c3ccc(OC)cc3C[C@H](C(=O)OC)N2C(=O)CCl)cc1 [LX-417]	21.8%	–	43.5%	347%	294%	–
C[C@@H]1Cc2c([nH]c3ccccc23)[C@H](c2ccc(F)cc2)[C@H]1C#N [LX-418]	5.1%	–	17.7%	286%	284%	–
C#CC(=O)N1[C@@H](CCCC)Cc2c([nH]c3ncccc23)[C@@H]1c1ccc(F)cc1 [LX-419]	10.3%	–	25.1%	313%	274%	–
CCCC[C@H]1Cc2c([nH]c3ccccc23)[C@H](c2ccc(C(=O)NC34CC5CC(CC(C5)C3)C4)cc2)N1C(=O)CCl [LX-420]	0%	–	10%	307%	286%	–
C#CC(=O)N1[C@@H](CCCC)Cc2cc(CO)ccc2[C@@H]1c1ccc(NC23CC4CC(CC(C4)C2)C3)cc1 [LX-421]	3.4%	–	3.8%	328%	293%	–
CCCC[C@H]1Cc2c([nH]c3ccccc23)[C@H](c2ccc(NC3CCC3)cc2)N1C(=O)C#C[Si](C)(C)C [LX-422]	–	–	–	–	–	viability at 1.1 µM [1, 13]: 1.8%; activity at 30 µM (HMGN1 [2]; [14]): 336%; activity at 30 µM (HMGN1 [3]): 294%; viability at 1.1 µM (A549; [15]): 4.8%
Cc1onc(C(=O)N2CCN(C(c3ccc(Cl)cc3)c3ccc(OCc4cn(CCOCCNc5cccc6c5C(=O)N(C5CCC(=O)NC5=O)C6=O)nn4)cc3)CC2)c1[N+](=O)[O-] (stereo not drawn) [LX-431, 4-((2-(2-(4-((4-((4-chlorophenyl)(4-(5-methyl-4-nitroisooxazol-3-carbonyl)piperazin-1-yl)methyl)phenoxy)methyl)-1H-1,2,3-triazol-1-yl)ethoxy)ethyl)amino)-2-(2,6-dioxopiperidin-3-yl)isoindolin-1,3-dione]	89.5%	12.6%	94.6%	283%	312%	–
Cc1onc(C(=O)N2CCN(C(c3ccc(Cl)cc3)c3ccc(OCc4cn(CCOCCOCCNc5cccc6c5C(=O)N(C5CCC(=O)NC5=O)C6=O)nn4)cc3)CC2)c1[N+](=O)[O-] (stereo not drawn) [LX-432, 4-((2-(2-(2-(4-((4-((4-chlorophenyl)(4-(5-methyl-4-nitroisooxazol-3-carbonyl)piperazin-1-yl)methyl)phenoxy)methyl)-1H-1,2,3-triazol-1-yl)ethoxy)ethoxy)ethyl)amino)-2-(2,6-dioxopiperidin-3-yl)isoindolin-1,3-dione]	84.2%	–	97.1%	270%	304%	Survival (%) [1, 16]: 23.8%
Cc1onc(C(=O)N2CCN(C(c3ccc(Cl)cc3)c3ccc(OCc4cn(CCOCCOCCNc5cccc6c5C(=O)N(C5CCC(=O)NC5=O)C6=O)nn4)cc3)CC2)c1[N+](=O)[O-] (stereo not drawn) [LX-435, 4-((2-(2-(2-(4-((4-((4-chlorophenyl)(4-(5-methyl-4-nitroisooxazol-3-carbonyl)piperazin-1-yl)methyl)phenoxy)methyl)-1H-1,2,3-triazol-1-yl)ethoxy)ethoxy)ethyl)amino)-2-(2,6-dioxopiperidin-3-yl)isoindolin-1,3-dione]	–	–	–	–	–	Survival (%) ([1]; 1.1 μM test compound, doxorubicin-induced senescent foreskin cells, CellTiter-Glo, 0 μM = 100): 89.1%; Survival (%) [1, 16]: 5.9%; Survival (%) (A549; 1.1 μM test compound, CellTiter-Glo): 92.1%
Cc1onc(C(=O)N2CCN(C(c3ccc(Cl)cc3)c3ccc(OCc4cn(CCOCCOCCOCCOCCNc5cccc6c5C(=O)N(C5CCC(=O)NC5=O)C6=O)nn4)cc3)CC2)c1[N+](=O)[O-] (stereo not drawn) [LX-436, 4-((14-(4-((4-((4-chlorophenyl)(4-(5-methyl-4-nitroisooxazol-3-carbonyl)piperazin-1-yl)methyl)phenoxy)methyl)-1H-1,2,3-triazol-1-yl)-3,6,9,12-tetraoxatetradecyl)amino)-2-(2,6-dioxopiperidin-3-yl)isoindolin-1,3-dione]	84.4%	3.8%	99.5%	278%	299%	–
Cc1onc(C(=O)N2CCN(C(c3ccc(Cl)cc3)c3ccc(OCc4cn(CCNc5cccc6c5C(=O)N(C5CCC(=O)NC5=O)C6=O)nn4)cc3)CC2)c1[N+](=O)[O-] (stereo not drawn) [LX-437, 4-((2-(4-((4-((4-chlorophenyl)(4-(5-methyl-4-nitroisooxazol-3-carbonyl)piperazin-1-yl)methyl)phenoxy)methyl)-1H-1,2,3-triazol-1-yl)ethyl)amino)-2-(2,6-dioxopiperidin-3-yl)isoindolin-1,3-dione]	86.2%	10.9%	93.6%	301%	309%	–
CN(C)CCn1cc(-c2ccc(F)cc2)c(-n2cccc2)n1 [LX-913]	97.7%	84.4%	95.1%	–	–	Survival (%) ([1]; 30 μM test compound, doxorubicin-induced senescent foreskin cells, CellTiter-Glo, 0 μM = 100): 14.5%; viability at 10 µM [1, 5]: 65%; viability at 10 µM (A549; [9]): 82.6%; Survival (%) (A549; 30 μM test compound, CellTiter-Glo): 45.7%; Survival (%) (A549; 90 μM test compound, CellTiter-Glo): 1.9%
C=C(CN(C)C)C(=O)c1ccc2c(c1)OCO2 [LX-919]	–	–	–	–	–	activity at 90 µM (HMGN1 [2]; [14]): 215%; activity at 30 µM (HMGN1 [3]): 321%
COc1cc(OC)cc(N(CCNC(C)C)c2ccc3ncc(-c4cnn(C)c4)nc3c2)c1 [LX-1903, Erdafitinib, reference compound]	73.4%	50.3%	93.1%	–	–	viability at 10 µM [1, 5]: 22.4%; viability at 30 µM [1, 6]: 11.8%; viability at 10 µM (A549; [9]): 12.3%
CCCC\C=C/C=C/C=C\CCCCCCCC(=O)O [LX-2707, Punicic acid]	–	–	–	–	–	viability at 1.1 µM [1, 13]: 95.1%; viability at 10 µM [1, 13]: 64.8%; viability at 30 µM [1, 13]: 29%; viability at 1.1 µM (A549; [15]): 95.1%; viability at 10 µM (A549; [15]): 64.8%; viability at 30 µM (A549; [15]): 29%
CC(=O)N[C@@H](CS)C(=O)O [NAC, N-acetyl cysteine, reference compound]	–	–	–	–	–	removal of senescent cells [1]: hardly removed
